According to patent US20120225862A1, “HETEROARYL BENZAMIDES, COMPOSITIONS AND METHODS OF USE” (AUCKLAND UNIVSERVICES LIMITED, priority 2009, published 2012):
pIC50: −log10 of the molar value.

Assays:
RCC4 = experiment: XTT IC50 / viability assay, RCC4 cells; assay type: cell-based, human; details: Homo sapiens, RCC4, 96 h; XTT assay, four days
Method: (§1) RCC4 parental and RCC4 with VHL-reintroduced (RCC4/VHL), SN12C and SN12C-CSCG-VHL shRNA were maintained in DMEM supplemented with 10% FCS.
(§2) IC50 values for compounds were determined by XTT assay. For 2,3-bis[2-methoxy-4-nitro-5-sulfophenyl]-2H-tetrazolium-5-carboxanilide inner salt (XTT) assays, five thousand cells were plated in 96-well plates. The next day, vehicle or drug was added to each well and incubated for four days. Media was aspirated and phenol red-free medium with 0.3 mg/mL XTT and 2.65 ug/mL N-methyl dibenzopyrazine methyl sulfate was added. This was incubated at 37° C. for 1-2 hours and absorbance was read at 450 nm. IC50 values for each compound were calculated using linear interpolation.
(§3) For 2,3-bis[2-methoxy-4-nitro-5-sulfophenyl]-2H-tetrazolium-5-carboxanilide (XTT) assays, five thousand cells were plated in 96-well plates. The next day, vehicle (DMSO) or drug was added by serial dilution. Four days later, media were aspirated, XTT solution (0.3 mg/ml of XTT (Sigma), 2.65 mg/ml N-methyl dibenxopyrazine methyl sulfate (Simga) in phenol red-free media) was added, and the plates were incubated at 37° C. for 1-2 hours. Metabolism of XTT was quantified by measuring the absorbance at 450 nm. IC50s were calculated using linear interpolation. For clonogenic survival assays, three hundred cells were plated per 60 mm tissue culture dish. The cells were allowed to attach overnight and then treated with vehicle or drug for 14 days. Colonies were fixed and stained with crystal violet (0.1% crystal violet in 95% ethanol). All conditions were measured in triplicate and each experiment was done in duplicate or triplicate. To determine necrosis, cells were treated with drug for a given time point. Media and cells were collected, centrifugated, and resuspended in 0.4% trypan blue (Invitrogen). Live and dead cells were counted on a hematocytometer.

RCC4/VHL = experiment: XTT IC50 assay, selectivity RCC4 versus RCC4 with VHL-reintroduced; assay type: cell-based, human; details: selectivity ratio of XTT IC50 values, RCC4 vs RCC4/VHL
Method: as §1, §2, §3

Row | Compound | pIC50 (RCC4) | Ratio (RCC4:RCC/VHL) (RCC4/VHL)
1 | O=C(Nc1cccnc1)c1ccc(CNS(=O)(=O)c2ccc(-c3cn(Cc4ccccc4)nn3)cc2)cc1 [Example 102, 4-[({[4-(1-benzyl-1H-1,2,3-triazol-4-yl)phenyl]sulfonyl}amino)methyl]-N-(3-pyridinyl)benzamide] | < 4.70 | a (“a” reflects a ratio of RCC4/RCC-VHL+ ranging from 1 to 10)
2 | Cn1ccc(-c2cccc(S(=O)(=O)NCc3ccc(C(=O)Nc4cccnc4)cc3)c2)n1 [Example 28, 4-[({[3-(1-Methyl-1H-pyrazol-3-yl)phenyl]sulfonyl}amino)methyl]-N-(3-pyridinyl)benzamide] | > 6.00 | c (“c” reflects a ratio of >100)
3 | COC1CCN(c2ccc(S(=O)(=O)NCc3ccc(C(=O)Nc4cccnc4)cc3)cc2)CC1 [Example 129, 4-[({[4-(4-Methoxy-1-piperidinyl)phenyl]sulfonyl}amino)methyl]-N-(3-pyridinyl)benzamide] | > 6.00 | c (“c” reflects a ratio of >100)
4 | O=C(Nc1cccnc1)c1ccc(CNS(=O)(=O)c2cccc(-c3ncccn3)c2)cc1 [Example 27, 4-[({[3-(2-Pyrimidinyl)phenyl]sulfonyl}amino)methyl]-N-(3-pyridinyl)benzamide] | > 6.00 | b (“b” reflects from 10 to 100)
5 | NCCOCCOCCOCCOCCOCCOCCCc1ccc(S(=O)(=O)NCc2ccc(C(=O)Nc3cccnc3)cc2)cc1 [Example 130, 4-[({[4-(21-Amino-4,7,10,13,16,19-hexaoxahenicos-1-yl)phenyl]sulfonyl}amino)methyl]-N-(3-pyridinyl)benzamide] | 4.70 to 6.00 | a (“a” reflects a ratio of RCC4/RCC-VHL+ ranging from 1 to 10)
6 | O=C(Nc1cccnc1)c1ccc(CNS(=O)(=O)c2ccccc2Cl)cc1 [Example 12, 4-((2-Chlorophenylsulfonamido)methyl)-N-(pyridin-3-yl)benzamide] | 4.70 to 6.00 | a (“a” reflects a ratio of RCC4/RCC-VHL+ ranging from 1 to 10)
7 | Cc1nnc(-c2cccc(S(=O)(=O)NCc3ccc(C(=O)Nc4cccnc4)cc3)c2)o1 [Example 29, 4-[({[3-(5-Methyl-1,3,4-oxadiazol-2-yl)phenyl]sulfonyl}amino)methyl]-N-(3-pyridinyl)benzamide] | 4.70 to 6.00 | b (“b” reflects from 10 to 100)
8 | O=C(Nc1cccnc1)c1ccc(CNS(=O)(=O)c2ccc3ccccc3c2)cc1 [Example 72, 4-((Naphthalene-2-sulfonamido)methyl)-N-(pyridin-3-yl)benzamide] | 4.70 to 6.00 | b (“b” reflects from 10 to 100)
9 | O=C(Nc1cccnc1)c1ccc(CNS(=O)(=O)c2ccc(CN3CCCC3)cc2)cc1 [Example 80, 4-[({[4-(1-Pyrrolidinylmethyl)phenyl]sulfonyl}amino)methyl]-N-(3-pyridinyl)-benzamide] | > 6.00 | c (“c” reflects a ratio of >100)
10 | O=C(Nc1cccnc1)c1ccc(CNS(=O)(=O)c2ccc(-c3ccc(F)cc3)cc2)cc1 [Example 55, 4-({[(4′-Fluoro[1,1′-biphenyl]-4-yl)sulfonyl]amino}methyl)-N-(3-pyridinyl)benzamide] | > 6.00 | b (“b” reflects from 10 to 100)
11 | Nc1ccc(S(=O)(=O)NCc2ccc(C(=O)Nc3cccnc3)cc2)cc1 [Example 32, 4-((4-Aminophenylsulfonamido)methyl)-N-(pyridin-3-yl)benzamide] | 4.70 to 6.00 | b (“b” reflects from 10 to 100)
12 | O=C(Nc1cccnc1)c1ccc(CNS(=O)(=O)c2cccc(Cl)c2)cc1 [Example 21, 4-((3-Chlorophenylsulfonamido)methyl)-N-(pyridin-3-yl)benzamide] | > 6.00 | b (“b” reflects from 10 to 100)
13 | O=C(Nc1cccnc1)c1ccc(CNS(=O)(=O)c2ccc(C#CCN3CCOCC3)cc2)cc1 [Example 136, 4-{[({4-[3-(4-Morpholinyl)-1-propynyl]phenyl}sulfonyl)amino]methyl}-N-(3-pyridinyl)benzamide] | > 6.00 | b (“b” reflects from 10 to 100)
14 | CN(C)CC#Cc1ccc(S(=O)(=O)NCc2ccc(C(=O)Nc3cccnc3)cc2)cc1 [Example 137, 4-{[({4-[3-(Dimethylamino)-1-propynyl]phenyl}sulfonyl)amino]methyl}-N-(3-pyridinyl)benzamide] | > 6.00 | b (“b” reflects from 10 to 100)
15 | CC(C)(C)c1ccc(S(=O)(=O)NCc2ccc(C(=O)Nc3cnccc3C(F)(F)F)cc2)cc1 [Example 122, 4-({[(4-tert-Butylphenyl)sulfonyl]amino}methyl)-N-[4-(trifluoromethyl)-3-pyridinyl]benzamide] | 4.70 to 6.00 | a (“a” reflects a ratio of RCC4/RCC-VHL+ ranging from 1 to 10)
16 | CCCCOc1ccc(S(=O)(=O)NCc2ccc(C(=O)Nc3cccnc3)cc2)cc1 [Example 34, 4-((4-Butoxyphenylsulfonamido)methyl)-N-(pyridin-3-yl)benzamide] | > 6.00 | b (“b” reflects from 10 to 100)
17 | O=C(Nc1cccnc1)c1ccc(CNS(=O)(=O)c2ccc(CN3CCOCC3)cc2)cc1 [Example 83, 4-[({[4-(4-Morpholinylmethyl)phenyl]sulfonyl}amino)methyl]-N-(3-pyridinyl)benzamide] | > 6.00 | c (“c” reflects a ratio of >100)
18 | Cc1ccc(-c2ccc(S(=O)(=O)NCc3ccc(C(=O)Nc4cccnc4)cc3)cc2)cc1 [Example 53, 4-({[(4′-Methyl[1,1′-biphenyl]-4-yl)sulfonyl]amino}methyl)-N-(3-pyridinyl)benzamide] | 4.70 to 6.00 | a (“a” reflects a ratio of RCC4/RCC-VHL+ ranging from 1 to 10)
19 | O=C(Nc1cccnc1)c1ccc(CNS(=O)(=O)c2ccc(-n3cccn3)cc2)cc1 [Example 58, 4-[({[4-(1H-Pyrazol-1-yl)phenyl]sulfonyl}amino)methyl]-N-(3-pyridinyl)benzamide] | 4.70 to 6.00 | a (“a” reflects a ratio of RCC4/RCC-VHL+ ranging from 1 to 10)
20 | O=C(Nc1cccnc1)c1ccc(CNS(=O)(=O)c2ccc(-c3ccc(Cl)cc3)cc2)cc1 [Example 56, 4-({[(4′-Chloro[1,1′-biphenyl]-4-yl)sulfonyl]amino}methyl)-N-(3-pyridinyl)benzamide] | 4.70 to 6.00 | b (“b” reflects from 10 to 100)
21 | O=C(Nc1cccnc1)c1ccc(CNS(=O)(=O)c2ccc(Br)cc2)cc1 [Example 45, 4-((4-Bromophenylsulfonamido)methyl)-N-(pyridin-3-yl)benzamide] | 4.70 to 6.00 | b (“b” reflects from 10 to 100)
22 | Cc1c(C)c(C)c(S(=O)(=O)NCc2ccc(C(=O)Nc3cccnc3)cc2)c(C)c1C [Example 63, 4-((2,3,4,5,6-Pentamethylphenylsulfonamido)methyl)-N-(pyridin-3-yl)benzamide] | > 6.00 | b (“b” reflects from 10 to 100)
23 | O=C(Nc1cccnc1)c1ccc(CNS(=O)(=O)c2ccc(N3CCCCC3)cc2)cc1 [Example 128, 4-[({[4-(1-Piperidinyl)phenyl]sulfonyl}amino)methyl]-N-(3-pyridinyl)benzamide] | > 6.00 | c (“c” reflects a ratio of >100)
24 | O=C(Nc1cccnc1)c1ccc(CNS(=O)(=O)c2ccc(Cl)c(Cl)c2)cc1 [Example 70, 4-((3,4-Dichlorophenylsulfonamido)methyl)-N-(pyridin-3-yl)benzamide] | 4.70 to 6.00 | b (“b” reflects from 10 to 100)
25 | COc1ccc(S(=O)(=O)NCc2ccc(C(=O)Nc3cccnc3)cc2)cc1 [Example 33, 4-((4-Methoxyphenylsulfonamido)methyl)-N-(pyridin-3-yl)benzamide] | 4.70 to 6.00 | b (“b” reflects from 10 to 100)
26 | CN(C)CCCc1ccc(S(=O)(=O)NCc2ccc(C(=O)Nc3cccnc3)cc2)cc1 [Example 142, 4-{[({4-[3-(Dimethylamino)propyl]phenyl}sulfonyl)amino]methyl}-N-(3-pyridinyl)benzamide] | > 6.00 | b (“b” reflects from 10 to 100)
27 | O=C(Nc1cccnc1)c1ccc(CNS(=O)(=O)c2ccc(CN3CCCCC3)cc2)cc1 [Example 81, 4-[({[4-(1-Piperidinylmethyl)phenyl]sulfonyl}amino)methyl]-N-(3-pyridinyl)benzamide] | > 6.00 | b (“b” reflects from 10 to 100)
28 | Cc1ccc(S(=O)(=O)NCc2ccc(C(=O)Nc3cccnc3)cc2)cc1Cl [Example 69, 4-((3-Chloro-4-methylphenylsulfonamido)methyl)-N-(pyridin-3-yl)benzamide] | > 6.00 | b (“b” reflects from 10 to 100)
